In patent US7973051B2 (Hoffman-La Roche Inc., priority 2007, dated 2011):

Target: T1, human liver FBPase (Homo sapiens, UniProt P09467)
T1 construct: made in house; host or cells: E. coli
T1 sequence (P09467 2-338 limits assumed): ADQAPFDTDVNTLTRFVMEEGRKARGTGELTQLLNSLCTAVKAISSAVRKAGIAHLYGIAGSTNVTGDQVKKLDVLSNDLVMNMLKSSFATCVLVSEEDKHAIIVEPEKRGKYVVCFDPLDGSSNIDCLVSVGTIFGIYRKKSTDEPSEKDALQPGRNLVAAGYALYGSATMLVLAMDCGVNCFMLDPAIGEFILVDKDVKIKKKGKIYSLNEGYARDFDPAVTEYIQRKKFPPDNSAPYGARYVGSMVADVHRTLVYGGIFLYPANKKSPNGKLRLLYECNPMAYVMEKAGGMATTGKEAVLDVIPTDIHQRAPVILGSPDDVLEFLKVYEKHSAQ
Assay: FBPase assay: inorganic phosphate release (malachite green)
Format: biochemical
Conditions: recombinant human liver FBPase, 50 μM fructose-1,6-bisphosphate, read-out at 620 nm
Experimental: The following tests were carried out for evaluating the inhibitory activity of the compounds of the present invention against human liver FBPase (Swissprot Data base reference P09467, entry F16P_HUMAN).
Human liver FBPase cDNA (NM_000507) was purchased from Origene Technologies, Inc, subcloned in a vector for expression in E. Coli., and sequenced. Recombinant human liver FBPase (hlFBPase) was purified according to the following protocol that uses heat denaturation similarly to that described by El-Maghrabi et. al. [El-Maghrabi, M. R. et al. “Isolation of a human liver fructose-1,6-bisphosphatase cDNA and expression of the protein in Escherichia coli.” J Biol Chem 268:9466-9472, 1993.]. Briefly, E. coli cells, transiently expressing very high levels of soluble and active human liver FBPase, were suspended in 20 mM Tris-HCl pH 7.5, 1 mM EDTA, 1 mM DTT and were lysed by French press. The soluble extract was heat denatured at 65° C. for 5 min, and insoluble, denatured proteins were removed by centrifugation. The extract was then applied to a BioRad Macro-Prep High Q column equilibrated with 20 mM Tris-HCl pH 7.5, 1 mM EDTA, 1 mM DTT and the flow-through (containing FBPase activity) was collected and applied to a BioRad Macro-Prep HS column equilibrated with 20 mM HEPES pH 7.2, 1 mM DTT. A gradient of increasing NaCl concentration was then applied to the HS column and fractions were collected. Fractions containing active FBPase were pooled and further purified by size exclusion chromatography on a Sephacryl S200 column equilibrated in 20 mM Tris-HCl pH 7.5, 150 mM NaCl, 1 mM EDTA, 1 mM DTT. Purity of the enzyme preparation was >90% as assessed by Mass spectrometry.
Recombinant human liver FBPase (hlFBPase) activity was assayed through measuring the inorganic phosphate release that results from the hydrolysis of Fructose-1,6-bisphosphate by the enzyme. As described by Baykov A. A. et al. in [Baykov A. A et al., “Malachite Green procedure for orthophosphate determination and its use in alkaline phosphatase-based enzyme immunoassays”. Anal. Biochem., 171:266-270, 1988], inorganic phosphate can be readily quantified by spectrophotometry at 620 nm after complexation with ammonium molybdate/malachite green reagent. Enzymatic reaction was carried out with modifications of the procedure described by Wright S. W. et al. [Wright S. W. et al., “Anilinoquinazoline inhibitors of Fructose-1,6-bisphosphatase bind to a novel allosteric site: synthesis, in vitro characterization, and X-ray crystallography”. J. Med. Chem. 45:3865-3877, 2002]. Specifically, the reaction was carried out in 96 well plates in a final volume of 100 μl in the presence or in the absence of allosteric inhibitors. Reaction was started adding 25 ng of hlFBPase to the reaction mixture containing 50 mM HEPES-KOH buffer pH 7.2, 2 mM MgCl2, 2 mM EDTA, 1 mM DTT, 50 μM fructose-1,6-bisphosphate and 1% DMSO. After 50 minutes incubation at room temperature, the phosphate released was allowed to form a colored complex for 10 min by adding 150 μl of ammonium molybdate/malachite green reagent containing 0.03% malachite green, 0.2% ammonium molybdate, 0.05% Triton X-100 and 0.7 M H2SO4 in water that was stirred for 30 min at room temperature and filtered through 0.2 μm filter. Under these conditions, the assay was linear with time and able to detect FBPase inhibition after spectrophotometric read-out at 620 nm.

Row | IC50 [nM] | SMILES
1 | 212 | O=C(Nc1ncc(Br)s1)NS(=O)(=O)c1csc2ccccc12 [Example 4, N-[(5-Bromo-1,3-thiazol-2-yl)carbamoyl]-1-benzothiophene-3-sulfonamide]
2 | 71 | CSc1sc(NC(=O)NS(=O)(=O)c2cc(C)c(CCO)s2)nc1C [Example 86, 5-(2-Hydroxyethyl)-4-methyl-N-{[4-methyl-5-(methylthio)-1,3-thiazol-2-yl]carbamoyl}thiophene-2-sulfonamide]
3 | 224 | CCc1sc(NC(=O)NS(=O)(=O)c2cc(C)c(CCOC)s2)nc1-c1ccccc1 [Example 72, N-[(5-Ethyl-4-phenyl-1,3-thiazol-2-yl)carbamoyl]-5-(2-methoxyethyl)-4-methylthiophene-2-sulfonamide]
4 | 434 | CCc1nc(NC(=O)NS(=O)(=O)c2cc(CCOC)c(C)s2)sc1Br [Example 59, N-[(5-Bromo-4-ethyl-1,3-thiazol-2-yl)carbamoyl]-4-(2-methoxyethyl)-5-methylthiophene-2-sulfonamide]
5 | 1470 | Cc1c(S(=O)(=O)NC(=O)Nc2ncc(Br)s2)sc2ccc(Br)cc12 [Example 5, 5-Bromo-N-[(5-bromo-1,3-thiazol-2-yl)carbamoyl]-3-methyl-1-benzothiophene-2-sulfonamide]
6 | 215 | CCc1nc(NC(=O)NS(=O)(=O)c2cc(C)c(CCOC(C)=O)s2)sc1CC [Example 67, 2-[5-({[(4,5-Diethyl-1,3-thiazol-2-yl)carbamoyl]amino}sulfonyl)-3-methyl-2-thienyl]ethyl acetate]
7 | 137 | Cn1cc(S(=O)(=O)NC(=O)Nc2ncc(Br)s2)c2cccc(OCC(N)=O)c21 [Example 51, 2-{[3-({[(5-Bromo-1,3-thiazol-2-yl)carbamoyl]amino}sulfonyl)-1-methyl-1H-indol-7-yl]oxy}acetamide]
8 | 341 | Cn1cc(S(=O)(=O)NC(=O)Nc2ncc(Br)s2)c2cc(F)ccc21 [Example 26, N-[(5-Bromo-1,3-thiazol-2-yl)carbamoyl]-5-fluoro-1-methyl-1H-indole-3-sulfonamide]
9 | 89 | Cc1ccc2sc(S(=O)(=O)NC(=O)Nc3ncc(Br)s3)cc2c1 [Example 1, N-[(5-Bromo-1,3-thiazol-2-yl)carbamoyl]-5-methyl-1-benzothiophene-2-sulfonamide]
10 | 122 | COc1ccc2scc(S(=O)(=O)NC(=O)Nc3ncc(Br)s3)c2c1 [Example 7, N-[(5-Bromo-1,3-thiazol-2-yl)carbamoyl]-5-methoxy-1-benzothiophene-3-sulfonamide]
11 | 771 | COc1sc(NC(=O)NS(=O)(=O)c2cn(C)c3c(OC)cccc23)nc1C [Example 52, 7-Methoxy-N-[(5-methoxy-4-methyl-1,3-thiazol-2-yl)carbamoyl]-1-methyl-1H-indole-3-sulfonamide]
12 | 340 | CCc1nc(NC(=O)NS(=O)(=O)c2cc(C)c(CCO)s2)sc1CC [Example 69, N-[(4,5-Diethyl-1,3-thiazol-2-yl)carbamoyl]-5-(2-hydroxyethyl)-4-methylthiophene-2-sulfonamide]
13 | 842 | COCCc1sc(S(=O)(=O)NC(=O)Nc2nc3ccc(OC)nc3s2)cc1C [Example 90, 5-(2-Methoxyethyl)-N-[(5-methoxy[1,3]thiazolo[5,4-b]pyridin-2-yl)carbamoyl]-4-methylthiophene-2-sulfonamide]
14 | 366 | CCc1sc(NC(=O)NS(=O)(=O)c2cc(C)c(CCOC)s2)nc1C(C)C [Example 77, N-[(5-Ethyl-4-isopropyl-1,3-thiazol-2-yl)carbamoyl]-5-(2-methoxyethyl)-4-methylthiophene-2-sulfonamide]
15 | 161 | CCc1sc(NC(=O)NS(=O)(=O)c2cc(C)c(CCOC(C)=O)s2)nc1-c1ccccc1 [Example 80, 2-[5-({[(5-Ethyl-4-phenyl-1,3-thiazol-2-yl)carbamoyl]amino}sulfonyl)-3-methyl-2-thienyl]ethyl acetate]
16 | 88 | COc1ccc2cc(S(=O)(=O)NC(=O)Nc3ncc(Br)s3)sc2c1 [Example 9, N-[(5-Bromo-1,3-thiazol-2-yl)carbamoyl]-6-methoxy-1-benzothiophene-2-sulfonamide]
17 | 616 | COc1ccc2nc(NC(=O)NS(=O)(=O)c3cc(C)c(CCOC(C)=O)s3)sc2n1 [Example 55, 2-[5-({[(5-methoxy[1,3]thiazolo[5,4-b]pyridin-2-yl)carbamoyl]amino}sulfonyl)-3-methyl-2-thienyl]ethyl acetate]
18 | 523 | Cn1cc(S(=O)(=O)NC(=O)Nc2ncc(Br)s2)c2ccc(S(C)(=O)=O)cc21 [Example 30, N-[(5-Bromo-1,3-thiazol-2-yl)carbamoyl]-1-methyl-6-(methylsulfonyl)-1H-indole-3-sulfonamide]
19 | 1320 | COc1cnc(NC(=O)NS(=O)(=O)c2cn(C)c3c(OC)cccc23)s1 [Example 44, 7-Methoxy-N-[(5-methoxy-1,3-thiazol-2-yl)carbamoyl]-1-methyl-1H-indole-3-sulfonamide]
20 | 159 | CCc1sc(NC(=O)NS(=O)(=O)c2csc(C)c2)nc1-c1ccccc1 [Example 71, N-[(5-Ethyl-4-phenyl-1,3-thiazol-2-yl)carbamoyl]-5-methylthiophene-3-sulfonamide]
21 | 528 | O=C(Nc1ncc(Br)s1)NS(=O)(=O)c1cc2c(s1)CCOC2 [Example 6, N-[(5-Bromo-1,3-thiazol-2-yl)carbamoyl]-6,7-dihydro-4H-thieno[3,2-c]pyran-2-sulfonamide]
22 | 2730 | Cc1c(S(=O)(=O)NC(=O)Nc2ncc(Br)s2)sc2ccc(F)cc12 [Example 3, N-[(5-Bromo-1,3-thiazol-2-yl)carbamoyl]-5-fluoro-3-methyl-1-benzothiophene-2-sulfonamide]
23 | 188 | CCc1nc(NC(=O)NS(=O)(=O)c2csc(C)c2)sc1Br [Example 57, N-[(5-Bromo-4-ethyl-1,3-thiazol-2-yl)carbamoyl]-5-methylthiophene-3-sulfonamide]
24 | 71 | COc1cccc2c(S(=O)(=O)NC(=O)Nc3ncc(Br)s3)cn(C)c12 [Example 33, N-[(5-Bromo-1,3-thiazol-2-yl)carbamoyl]-7-methoxy-1-methyl-1H-indole-3-sulfonamide]
25 | 375 | COCCc1sc(S(=O)(=O)NC(=O)Nc2nc3c(C)cccc3s2)cc1C [Example 91, 5-(2-Methoxyethyl)-4-methyl-N-[(4-methyl-1,3-benzothiazol-2-yl)carbamoyl]thiophene-2-sulfonamide]
26 | 134 | CCc1nc(NC(=O)NS(=O)(=O)c2cc(C)c(CCOC(C)=O)s2)sc1SC [Example 83, 2-{5-[({[4-Ethyl-5-(methylthio)-1,3-thiazol-2-yl]carbamoyl}amino)sulfonyl]-3-methyl-2-thienyl}ethyl acetate]
27 | 134 | O=C(Nc1ncc(Br)s1)NS(=O)(=O)c1cc2ccccc2[nH]1 [Example 20, N-[(5-Bromo-1,3-thiazol-2-yl)carbamoyl]-1H-indole-2-sulfonamide]
28 | 167 | COc1ccc2sc(S(=O)(=O)NC(=O)Nc3ncc(Br)s3)cc2c1 [Example 17, N-[(5-Bromo-1,3-thiazol-2-yl)carbamoyl]-5-methoxy-1-benzothiophene-2-sulfonamide]
29 | 341 | CCc1sc(NC(=O)NS(=O)(=O)c2cc(C)c(CCOC)s2)nc1C [Example 60, N-[(5-Ethyl-4-methyl-1,3-thiazol-2-yl)carbamoyl]-5-(2-methoxyethyl)-4-methylthiophene-2-sulfonamide]
